In PubChem BioAssay AID1845206 (Molecular Pharmacology Branch, DTP, NCI, 2023):

Test system: NCI-H1618 multicellular tumor spheroid viability
Test: Anticancer human tumor NCI-H1618 cell line growth inhibition;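 further: spheroids exposed to agents for 7 days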
Conditions: for IC50: curve of first compound; for viability, T/C: stronger effect = lower value
Procedure, shortened: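 Complex tumor spheroids combined malignant cells with endothelial cells and mesenchymal stem cells. DNA-damaging drugs and DNA repair inhibitors were tested alone and in combination, at half-log dilutions down from clinical Cmax (top 10 microM if Cmax unknown), 0.25% DMSO final.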

[1] = second compound 0.003 µM, first compound 0.0316 µM
[2] = second compound 0.003 µM, first compound 0.1 µM
[3] = second compound 0.003 µM, first compound 0.316 µM
[4] = second compound 0.003 µM, first compound 1 µM
[5] = second compound 0.003 µM, first compound 3.16 µM
[6] = second compound 0.003 µM, first compound 10 µM

CC(C)n1c(=O)n(C)c2cnc3cc(F)c(-c4ccc(OCCCN5CCCCC5)nc4)cc3c21 + COc1cc2c(cc1O)CCNC21CSC2c3c(OC(C)=O)c(C)c4c(c3C(COC1=O)N1C(O)C3Cc5cc(C)c(OC)c(O)c5C(C21)N3C)OCO4 gave an IC50 (second compound 30 pM) of 7230 nM, an IC50 (second compound 94.9 pM) of less than 31.6 nM and an IC50 (second compound 0.0003 µM) of less than 31.6 nM. It also gave an IC50 (second compound 0.000949 µM) of less than 31.6 nM, an IC50 (second compound 0.003 µM) of less than 31.6 nM and a viability, T/C (second compound 30 pM, first compound 0.0316 µM) of 98.6%. It also gave a viability, T/C (second compound 30 pM, first compound 0.1 µM) of 66.3%, a viability, T/C (second compound 30 pM, first compound 0.316 µM) of 83% and a viability, T/C (second compound 30 pM, first compound 1 µM) of 103%. The viability, T/C (second compound 30 pM, first compound 3.16 µM) was 70%, the viability, T/C (second compound 30 pM, first compound 10 µM) was 42.2% and the viability, T/C (second compound 94.9 pM, first compound 0.0316 µM) was 46.2%. For the same molecule, the viability, T/C (second compound 94.9 pM, first compound 0.1 µM) was 13.4%, the viability, T/C (second compound 94.9 pM, first compound 0.316 µM) was 36.4% and the viability, T/C (second compound 94.9 pM, first compound 1 µM) was 42.7%. For the same molecule, the viability, T/C (second compound 94.9 pM, first compound 3.16 µM) was 34.5%, the viability, T/C (second compound 94.9 pM, first compound 10 µM) was 15.9% and the viability, T/C (second compound 0.0003 µM, first compound 0.0316 µM) was 3.13%. It also gave a viability, T/C (second compound 0.0003 µM, first compound 0.1 µM) of 2.8%, a viability, T/C (second compound 0.0003 µM, first compound 0.316 µM) of 4.96% and a viability, T/C (second compound 0.0003 µM, first compound 1 µM) of 7.62%. For the same molecule, the viability, T/C (second compound 0.0003 µM, first compound 3.16 µM) was 9.67%, the viability, T/C (second compound 0.0003 µM, first compound 10 µM) was 7.88% and the viability, T/C (second compound 0.000949 µM, first compound 0.0316 µM) was 5.33%. For the same molecule, the viability, T/C (second compound 0.000949 µM, first compound 0.1 µM) was 5.23%, the viability, T/C (second compound 0.000949 µM, first compound 0.316 µM) was 5.71% and the viability, T/C (second compound 0.000949 µM, first compound 1 µM) was 5.14%. It also gave a viability, T/C (second compound 0.000949 µM, first compound 3.16 µM) of 5.57%, a viability, T/C (second compound 0.000949 µM, first compound 10 µM) of 8.28% and a viability, T/C [1] of 5.09%. The viability, T/C [2] was 4.6%, the viability, T/C [3] was 4.56% and the viability, T/C [4] was 5.67%. It also gave a viability, T/C [5] of 3.66% and a viability, T/C [6] of 5.04%.
[2H]c1nc(C)nc([2H])c1-c1cc(NC[C@@H](C)c2cccc3c(C(=O)NC)ccnc23)ncn1 + CC[C@@]1(O)C(=O)OCc2c1cc1n(c2=O)Cc2cc3c(CN(C)C)c(O)ccc3nc2-1 gave an IC50 (second compound 0.003 µM) of less than 31.6 nM, an IC50 (second compound 0.00949 µM) of less than 31.6 nM and an IC50 (second compound 0.03 µM) of less than 31.6 nM. The IC50 (second compound 0.0949 µM) was less than 31.6 nM, the IC50 (second compound 0.3 µM) was less than 31.6 nM and the viability, T/C [1] was 43.8%. The viability, T/C [2] was 7.02%, the viability, T/C [3] was 138% and the viability, T/C [4] was 158%. The viability, T/C [5] was 108%, the viability, T/C [6] was 57.3% and the viability, T/C (second compound 0.00949 µM, first compound 0.0316 µM) was 23%. The viability, T/C (second compound 0.00949 µM, first compound 0.1 µM) was 4.37%, the viability, T/C (second compound 0.00949 µM, first compound 0.316 µM) was 42.7% and the viability, T/C (second compound 0.00949 µM, first compound 1 µM) was 109%. The viability, T/C (second compound 0.00949 µM, first compound 3.16 µM) was 70.8%, the viability, T/C (second compound 0.00949 µM, first compound 10 µM) was 29.9% and the viability, T/C (second compound 0.03 µM, first compound 0.0316 µM) was 12%. It also gave a viability, T/C (second compound 0.03 µM, first compound 0.1 µM) of 7.3%, a viability, T/C (second compound 0.03 µM, first compound 0.316 µM) of 15.2% and a viability, T/C (second compound 0.03 µM, first compound 1 µM) of 21.4%. The viability, T/C (second compound 0.03 µM, first compound 3.16 µM) was 22%, the viability, T/C (second compound 0.03 µM, first compound 10 µM) was 26.6% and the viability, T/C (second compound 0.0949 µM, first compound 0.0316 µM) was 11.4%. It also gave a viability, T/C (second compound 0.0949 µM, first compound 0.1 µM) of 10.8%, a viability, T/C (second compound 0.0949 µM, first compound 0.316 µM) of 3.24% and a viability, T/C (second compound 0.0949 µM, first compound 1 µM) of 24.5%. It also gave a viability, T/C (second compound 0.0949 µM, first compound 3.16 µM) of 22.6%, a viability, T/C (second compound 0.0949 µM, first compound 10 µM) of 21.6% and a viability, T/C (second compound 0.3 µM, first compound 0.0316 µM) of 9.96%. For the same molecule, the viability, T/C (second compound 0.3 µM, first compound 0.1 µM) was 5.33%, the viability, T/C (second compound 0.3 µM, first compound 0.316 µM) was 2.69% and the viability, T/C (second compound 0.3 µM, first compound 1 µM) was 14.1%. The viability, T/C (second compound 0.3 µM, first compound 3.16 µM) was 16.1% and the viability, T/C (second compound 0.3 µM, first compound 10 µM) was 4.13%.
